For series [1] the following is noted: blood plasma. The method, then:
(§1) Moreover, the condition of the transdermally administration in association with the treatment of applying current is as follows.
(§2) This was funneled into a patch comprising an electrode and an adhesion layer, and cooled down at −80° C. to obtain a desired drug product.
Two NZ family male rabbits to be devoted to the test was bought from […] LABES Co., Ltd., (Charles River Japan, Inc.). […] The observation of the animal during the preliminary breeding and the test, as to a hair coat, a skin and a excretory substance was carried out every day.
The administration route: the transdermally administration in association with the treatment of applying current
The radioactivity density assay in the blood plasma was carried out as follows.
A sample for assay was treated by adding the solubilizing agent, and the measurement of the sample was carried out by using the liquid scintillation counter (LSC-1000, ALOKA). The limit of determinate quantity was two folds of the background, and the lesser value of the limit was determined as ND. The radioactivity density assay in the blood plasma was calculated from the measured value.
The radioactivity density is used as indication pointer, the calibrated concentration of the chemical drug converted with unaltered substance was calculated by the following formula. The calibrated concentration of the chemical drug (μg eq./mL)=The radioactivity density in the sample (dpm/mL)/{the amount of the administration radioactivity (dpm)/the amount of the administration chemical drug (μg)}

How the values of series [2] were obtained: as §1, §2
After that, an embedded freezing block was directed to the cutter of the microtome stage for mounting (CRYOMACROCUT, Leica), and a femoral region thereof was directed to the front, and a neck region was directed to the backside, and was fixed with being in close contact with the backside of the leg to the stage for mounting. When the stage for mounting of microtome was slid, the cutter was contacted perpendicular with the narrow side of the rectangular, the upper surface of this was chipped off as a sliced segment, the sliced segment was in close contact to the adhesive tape, and removed. This operation was repeated a couple dozens times, it was cleaved from the front portion of the knee to the backside portion, a segment of the administration and current-carrying part was (1) to (7) (from the front to the backside) in order of precedence.

The values below come from US8652522B2, “Pharmaceutical composition of an iontophoresis” (Teikoku Seiyaku Co., Ltd., priority 2009, dated 2014).

Structures are written as SMILES. Where two headings read alike, the source gives them in different places.

Turning to `CC1CC2C3CCC4=CC(=O)C=CC4(C)C3(F)C(O)CC2(C)C1(O)C(=O)COP(=O)([O-])[O-].[Na+].[Na+]` (centres unmarked) [[^3H] Betamethasone-21-phosphate disodium salt], the “average of drug conversion” value in series [1] (30 min. administration individual, 10 minutes) worked out at 0.01 μg eq./mL; in series [1] (30 min. administration individual, 20 minutes), 0.03 μg eq./mL; in series [1] (30 min. administration individual, 30 minutes), 0.09 μg eq./mL; in series [1] (120 min. administration individual, 10 minutes) it was 0.04 μg eq./mL; in series [1] (120 min. administration individual, 20 minutes) it was 0.09 μg eq./mL; in series [1] (120 min. administration individual, 30 minutes) it was 0.23 μg eq./mL. Moreover, the “average of drug conversion” value in series [1] (120 min. administration individual, 60 minutes) amounted to 0.66 μg eq./mL; in series [1] (120 min. administration individual, 90 minutes), 0.91 μg eq./mL; in series [1] (120 min. administration individual, 120 minutes), 1.17 μg eq./mL. Moreover, the “blackened image according to 3H, cingulum of the perimysial tissue (perimysium)” value in series [2] (existing up to the reticular dermis located in the inner side of the epidermal tissue) was “high density”. For the same molecule, the “blackened image according to 3H at a fibrous encapsulation and a synovium membrane” value in series [2] (synovial joint, administration time 120 minutes and 30 minutes) is on record as “very slight amount”.
